Experimental data as given in US9938264B2, “Proteolysis targeting chimera compounds and methods of preparing and using same” (YALE UNIVERSITY, priority 2015, dated 2018).
Where two headings read alike, the source gives them in different places.

Assays:
[1] = molecular target: T1, non-phosphorylated c-ABL kinase domain (Homo sapiens, UniProt P00519); assay: KinomeScan in vitro binding affinity (Kd), non-phosphorylated c-ABL kinase domain
T1 construct: phosphorylated and non-phosphorylated c-ABL kinase domain; purchased DiscoverRx Corporation (KinomeScan platform)
T1 sequence (P00519 242-493 limits assumed): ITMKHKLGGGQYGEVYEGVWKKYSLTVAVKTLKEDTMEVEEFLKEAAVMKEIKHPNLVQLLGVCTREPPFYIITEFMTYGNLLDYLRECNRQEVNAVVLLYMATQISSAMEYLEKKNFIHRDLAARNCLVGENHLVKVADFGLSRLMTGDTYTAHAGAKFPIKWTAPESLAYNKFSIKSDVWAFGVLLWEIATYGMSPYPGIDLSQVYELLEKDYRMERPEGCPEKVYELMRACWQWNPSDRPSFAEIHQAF
Procedure: (§1) PROTAC in vitro binding affinities (Kd) to phosphorylated and non-phosphorylated c-ABL kinase domain were determined using the KinomeScan platform (DiscoverRx Corporation). The compounds were solubilized in DMSO and sent to DiscoverRx Corporation as a 10 μM stock solution.

[2] = molecular target: T2, phosphorylated c-ABL kinase domain (Homo sapiens, UniProt P00519); assay: KinomeScan in vitro binding affinity (Kd), phosphorylated c-ABL kinase domain
T2 construct: phosphorylated and non-phosphorylated c-ABL kinase domain; purchased DiscoverRx Corporation (KinomeScan platform)
T2 sequence (P00519 242-493 limits assumed): T1 sequence (P00519 242-493 limits assumed)
Procedure: as §1

[3] = Table 2, read-out: ABL (non-phosphorylated)
[4] = Table 2, read-out: ABL (phosphorylated)
[5] = Table 1, ABL kinase domain, read-out: ABL (non-phosphorylated) affinity
[6] = Table 1, ABL kinase domain, read-out: ABL (phosphorylated) affinity

COc1cc(Nc2c(C#N)cnc3cc(OCCCN4CCN(CCCCCCOCCOCCOCCCCCC(=O)Nc5cccc6c5C(=O)N(C5CCC(=O)NC5=O)C6=O)CC4)c(OC)cc23)c(Cl)cc1Cl (stereo not drawn) [BOS-6-2-2-6-CRBN, 6-(2-(2-((6-(4-(3-((3-cyano-4-((2,4-dichloro-5-methoxyphenyl)amino)-6-methoxyquinolin-7-yl)oxy)propyl)piperazin-1-yl)hexyl)oxy)ethoxy)ethoxy)-N-(2-(2,6-dioxopiperidin-3-yl)-1,3-dioxoisoindolin-4-yl)hexanamide]
Kd [1, 3]: 0.91 nM
Kd [2, 4]: 0.55 nM

Cc1nc(Nc2ncc(C(=O)Nc3c(C)cccc3Cl)s2)cc(N2CCN(CCCCCCOCCCCCOCCCCCC(=O)Nc3cccc4c3C(=O)N(C3CCC(=O)NC3=O)C4=O)CC2)n1 (stereo not drawn) [DAS-6-5-6-CRBN, N-(2-chloro-6-methylphenyl)-2-((6-(4-(6-((5-((6-((2-(2,6-dioxopiperidin-3-yl)-1,3-dioxoisoindolin-4-yl)amino)-6-oxohexyl)oxy)pentyl)oxy)hexyl)piperazin-1-yl)-2-methylpyrimidin-4-yl)amino)thiazole-5-carboxamide]
Kd [1, 3]: 1.3 nM
Kd [2, 4]: 1.4 nM

Cc1ccc(NC(=O)c2ccc(CN3CCN(CCCCCCOCCOCC(=O)Nc4cccc5c4C(=O)N(C4CCC(=O)NC4=O)C5=O)CC3)cc2)cc1Nc1nccc(-c2cccnc2)n1 (stereo not drawn) [IMA-6-2-2-CRBN, 4-((4-(6-(2-(2-((2-(2,6-dioxopiperidin-3-yl)-1,3-dioxoisoindolin-4-yl)amino)-2-oxoethoxy)ethoxy)hexyl)piperazin-1-yl)methyl)-N-(4-methyl-3-((4-(pyridin-3-yl)pyrimidin-2-yl)amino)phenyl)benzamide]
Kd [1, 3]: 4.7 nM
Kd [2, 4]: 72 nM

COc1cc(Nc2c(C#N)cnc3cc(OCCCN4CCN(CCCCCCOCCOCCOCCCCCC(=O)N[C@H](C(=O)N5C[C@H](O)C[C@H]5C(=O)NCc5ccc(-c6scnc6C)cc5)C(C)(C)C)CC4)c(OC)cc23)c(Cl)cc1Cl [BOS-6-2-2-6-VHL, (2S,4R)-1-((S)-2-(tert-butyl)-22-(4-(3-((3-cyano-4-((2,4-dichloro-5-methoxyphenyl)amino)-6-methoxyquinolin-7-yl)oxy)propyl)piperazin-1-yl)-4-oxo-10,13,16-trioxa-3-azadocosanoyl)-4-hydroxy-N-(4-(4-methylthiazol-5-yl)benzyl)pyrrolidine-2-carboxamide]
Kd [1, 5]: 1.4 nM
Kd [2, 6]: 0.63 nM

COc1cc(Nc2c(C#N)cnc3cc(OCCCN4CCN(CCCCCCOCCCCCOCCCCCC(=O)Nc5cccc6c5C(=O)N(C5CCC(=O)NC5=O)C6=O)CC4)c(OC)cc23)c(Cl)cc1Cl (stereo not drawn) [BOS-6-5-6-CRBN, 6-((5-((6-(4-(3-((3-cyano-4-((2,4-dichloro-5-methoxyphenyl)amino)-6-methoxyquinolin-7-yl)oxy)propyl)piperazin-1-yl)hexyl)oxy)pentyl)oxy)-N-(2-(2,6-dioxopiperidin-3-yl)-1,3-dioxoisoindolin-4-yl)hexanamide]
Kd [1, 3]: 2.8 nM
Kd [2, 4]: 1.1 nM

Cc1nc(Nc2ncc(C(=O)Nc3c(C)cccc3Cl)s2)cc(N2CCN(CCCCCCOCCOCC(=O)Nc3cccc4c3C(=O)N(C3CCC(=O)NC3=O)C4=O)CC2)n1 (stereo not drawn) [DAS-6-2-2-CRBN, N-(2-chloro-6-methylphenyl)-2-((6-(4-(6-(2-(2-((2-(2,6-dioxopiperidin-3-yl)-1,3-dioxoisoindolin-4-yl)amino)-2-oxoethoxy)ethoxy)hexyl)piperazin-1-yl)-2-methylpyrimidin-4-yl)amino)thiazole-5-carboxamide]
Kd [1, 3]: 0.28 nM
Kd [2, 4]: 0.19 nM

Cc1ccc(NC(=O)c2ccc(CN3CCN(CCCCCCOCCOCCOCCOCCOCCOCC(=O)N[C@H](C(=O)N4C[C@H](O)C[C@H]4C(=O)NCc4ccc(-c5scnc5C)cc4)C(C)(C)C)CC3)cc2)cc1Nc1nccc(-c2cccnc2)n1 [IMA-6-(2-)5-2-VHL, (2S,4R)-1-((S)-2-(tert-butyl)-27-(4-(4-((4-methyl-3-((4-(pyridin-3-yl)pyrimidin-2-yl)amino)phenyl)carbamoyl)benzyl)piperazin-1-yl)-4-oxo-6,9,12,15,18,21-hexaoxa-3-azaheptacosanoyl)-4-hydroxy-N-(4-(4-methylthiazol-5-yl)benzyl)pyrrolidine-2-carboxamide]
Kd [1, 3]: 1.7 nM
Kd [2, 4]: 35 nM

Cc1ccc(NC(=O)c2ccc(CN3CCN(CCCCCCOCCCCCOCCCCCC(=O)N[C@H](C(=O)N4C[C@H](O)C[C@H]4C(=O)NCc4ccc(-c5scnc5C)cc4)C(C)(C)C)CC3)cc2)cc1Nc1nccc(-c2cccnc2)n1 [IMA-6-5-6-VHL, (2S,4R)-1-((S)-3,3-dimethyl-2-(6-((5-((6-(4-(4-((4-methyl-3-((4-(pyridin-3-yl)pyrimidin-2-yl)amino)phenyl)carbamoyl)benzyl)piperazin-1-yl)hexyl)oxy)pentyl)oxy)hexanamido)butanoyl)-4-hydroxy-N-(4-(4-methylthiazol-5-yl)benzyl)pyrrolidine-2-carboxamide]
Kd [1, 3]: 19 nM
Kd [2, 4]: 46 nM

Cc1ccc(NC(=O)c2ccc(CN3CCN(CCCCCCOCCOCC(=O)N[C@H](C(=O)N4C[C@H](O)C[C@H]4C(=O)NCc4ccc(-c5scnc5C)cc4)C(C)(C)C)CC3)cc2)cc1Nc1nccc(-c2cccnc2)n1 [IMA-6-2-2-VHL, (2S,4R)-1-((S)-3,3-dimethyl-2-(2-(2-((6-(4-(4-((4-methyl-3-((4-(pyridin-3-yl)pyrimidin-2-yl)amino)phenyl)carbamoyl)benzyl)piperazin-1-yl)hexyl)oxy)ethoxy)acetamido)butanoyl)-4-hydroxy-N-(4-(4-methylthiazol-5-yl)benzyl)pyrrolidine-2-carboxamide]
Kd [1, 3]: 5.8 nM
Kd [2, 4]: 98 nM

COc1cc(Nc2c(C#N)cnc3cc(OCCCN4CCN(CCCCCCOCCCCCOCCCCCC(=O)N[C@H](C(=O)N5C[C@H](O)C[C@H]5C(=O)NCc5ccc(-c6scnc6C)cc5)C(C)(C)C)CC4)c(OC)cc23)c(Cl)cc1Cl [BOS-6-5-6-VHL, (2S,4R)-1-((S)-2-(6-((5-((6-(4-(3-((3-cyano-4-((2,4-dichloro-5-methoxyphenyl)amino)-6-methoxyquinolin-7-yl)oxy)propyl)piperazin-1-yl)hexyl)oxy)pentyl)oxy)hexanamido)-3,3-dimethylbutanoyl)-4-hydroxy-N-(4-(4-methylthiazol-5-yl)benzyl)pyrrolidine-2-carboxamide]
Kd [1, 3]: 4.6 nM
Kd [2, 4]: 1.5 nM

Cc1ccc(NC(=O)c2ccc(CN3CCN(CCCCCCOCCOCCOCCCCCC(=O)Nc4cccc5c4C(=O)N(C4CCC(=O)NC4=O)C5=O)CC3)cc2)cc1Nc1nccc(-c2cccnc2)n1 (stereo not drawn) [IMA-6-2-2-6-CRBN, 4-((4-(6-(2-(2-((6-((2-(2,6-dioxopiperidin-3-yl)-1,3-dioxoisoindolin-4-yl)amino)-6-oxohexyl)oxy)ethoxy)ethoxy)hexyl)piperazin-1-yl)methyl)-N-(4-methyl-3-((4-(pyridin-3-yl)pyrimidin-2-yl)amino)phenyl)benzamide]
Kd [1, 5]: 6.2 nM
Kd [2, 6]: 110 nM

Cc1ccc(NC(=O)c2ccc(CN3CCN(CCCCCCOCCOCCOCCCCCC(=O)N[C@H](C(=O)N4C[C@H](O)C[C@H]4C(=O)NCc4ccc(-c5scnc5C)cc4)C(C)(C)C)CC3)cc2)cc1Nc1nccc(-c2cccnc2)n1 [IMA-6-2-2-6-VHL, (2S,4R)-1-((S)-2-(tert-butyl)-22-(4-(4-((4-methyl-3-((4-(pyridin-3-yl)pyrimidin-2-yl)amino)phenyl)carbamoyl)benzyl)piperazin-1-yl)-4-oxo-10,13,16-trioxa-3-azadocosanoyl)-4-hydroxy-N-(4-(4-methylthiazol-5-yl)benzyl)pyrrolidine-2-carboxamide]
Kd [1, 5]: 4.3 nM
Kd [2, 6]: 93 nM
